Tests used:
[1] = cited from earlier work
[2] = Moisture sorption/desorption (DVS), hygroscopicity; assay type: physicochemical
Procedure: Moisture sorption/desorption data was collected on a DVS Advantage, a DVS Adventure, or a DVS Intrinsic (SMS Surface Measurements Systems) moisture balance system. The sorption/desorption isotherms were measured stepwise in a range from 0%-RH to 90%-RH at typically 25° C. A weight change of typically <0.001%/min was chosen as criterion to switch to the next level of relative humidity (with a maximum equilibration time of typically 24 hours, if the weight change criterion was not met). The data were corrected for the initial moisture content of the samples by taking the weight after drying of the samples at 0%-RH as zero point.
The hygroscopicity of a given substance was characterized (by close analogy with the European Pharmacopoeia) by the increase in mass when the relative humidity was raised from 0%-RH to 90%-RH:
European Pharmacopoeia-8″ Edition (2014), Chapter 5.11.

[3] = Thermogravimetric analysis (TGA); assay type: physicochemical; conditions: heating rate 5 K/min under nitrogen, FIG. 3
Procedure: Thermogravimetric analyses (TGA) were performed on a Mettler-Toledo™ thermogravimetric analyzer (TGA/DSC1 or TGA/DSC3+). System suitability tests were performed with Hydranal as reference substance and calibrations using Aluminum and Indium as reference substances. For the thermogravimetric analyses, approx. 5 to 15 mg (about 7.197 mg of Form B) of sample were placed in aluminum pans, accurately weighed and hermetically closed with perforation lids. Prior to measurement, the lids were automatically pierced resulting in approx. 0.5 mm pin holes. The samples were then heated under a flow of nitrogen of about 50 mL/min using a heating rate of 5 K/min to a maximum temperature of typically 350° C.

[4] = Thermodynamic stability of the solid form; assay type: physicochemical

water uptake according to European Pharmacopeia ([2]; 0%-RH to 90%-RH) [%]	mass loss (TGA) [3] [%]	thermodynamic stability of solid form [4]	SMILES	brain permeability [1]	hygroscopicity class ([2]; relative humidity raised from 0%-RH to 90%-RH, typically 25° C.)
			CC(C)(C)c1nc(-c2cccc(NS(=O)(=O)c3c(F)cccc3F)c2F)c(-c2ccnc(N)n2)s1 [Dabrafenib]	very poor	
			COC(=O)N[C@@H](C)CNc1nccc(-c2cn(C(C)C)nc2-c2cc(Cl)cc(NS(C)(=O)=O)c2F)n1 [Encorafenib]	very poor	
< 0.2	0.087	thermodynamically stable form	Cn1cnc2ccc(Oc3c(F)ccc(NS(=O)(=O)N4CC[C@@H](F)C4)c3C#N)cc2c1=O [Form B, (3R)—N-[2-cyano-4-fluoro-3-(3-methyl-4-oxo-quinazolin-6-yl)oxy-phenyl]-3-fluoro-pyrrolidine-1-sulfonamide]		non-hygroscopic (weight increase Dm < 0.2%)
			CCCS(=O)(=O)Nc1ccc(F)c(C(=O)c2c[nH]c3ncc(-c4ccc(Cl)cc4)cc23)c1F [Vemurafenib]	very poor	

— patent US20260167627A1, “NEW SOLID FORMS OF (3R)-N-[2-CYANO-4-FLUORO-3-(3-METHYL-4-OXO-QUINAZOLIN-6-YL)OXY-PHENYL]-3-FLUORO-PYRROLIDINE-1-SULFONAMIDE” (Hoffmann-La Roche Inc., priority 2023, published 2026)
